{
  "source": "patent US9162992B2",
  "about": "“Compounds and compositions for treatment of breathing control disorders or diseases” (GALLEON PHARMACEUTICALS, INC., priority 2010, dated 2015)",
  "system": "spontaneously breathing rats",
  "assay": "Minute ventilation (MV) and cardiovascular parameters in naive rats",
  "assay_type": "in vivo, rat",
  "parameters": "unit not given here",
  "experimental": "All surgical procedures were performed under anesthesia induced by 2% isoflurane in compressed medical grade air. With rats in supine position, the right femoral vein was catheterized using polyethylene tubing (PE-50). This catheter was used for fluid and drug administration. Simultaneously, the right femoral artery was also catheterized for monitoring blood pressure and heart rate. In order to measure the respiratory parameters in spontaneously breathing rats, trachea was intubated using 13 gauge tracheal tube (2.5 mm ID, Instech Solomon, Pa.).\nAfter establishing a stable base-line at 1.5% isoflurane, compounds (typically at a dose of 1 mpk) were administered IV, and ventilatory parameters were generated from spontaneously breathing rats, along with cardiovascular output (mean arterial pressure (MAP) and heart rate). Maximum peak minute ventilatory (MV) responses (MPR), along with changes in minute ventilation versus baseline (AMV) were obtained as shown in the tables below.",
  "key": {"[1]": {"conditions": "Table 8, 1 mpk, 20% HPβCD, pH 4"}, "[2]": {"conditions": "Table 8, 1 mpk, 20% HPβCD, pH 6"}, "[3]": {"conditions": "Table 8, 1 mpk, 20% HPβCD, pH 4.5"}},
  "data": [
    {"smiles": "CCCNc1nc(NCCC)c2cc[nH]c2n1", "values": [
      {"measurement": "MV MPR", "setting": "1 mpk IV, 20% HPβCD, pH 4-6", "value": 336},
      {"measurement": "MV ΔMV", "setting": "1 mpk IV, 20% HPβCD, pH 4-6", "value": 164}
    ]},
    {"smiles": "C=CCNc1nc(N2CCC(c3nc(NCCC)nc(NCCC)n3)CC2)c2ccn(C)c2n1", "note": "[6-(1-(2-(allylamino)-7-methyl-7H-pyrrolo[2,3-d]pyrimidin-4-yl)piperidin-4-yl)-N^2,N^4-di-n-propyl-1,3,5-triazine-2,4-diamine]", "values": [
      {"measurement": "MV MPR", "setting": "1 mpk IV, 20% HPβCD, pH 5", "value": 154},
      {"measurement": "MV ΔMV", "setting": "1 mpk IV, 20% HPβCD, pH 5", "value": 60}
    ]},
    {"smiles": "CCCNc1nc(N(C)N(C)C)c2ccn(C)c2n1", "note": "[7-methyl-N-n-propyl-4-(1,2,2-trimethylhydrazinyl)-7H-pyrrolo[2,3-d]pyrimidin-2-amine]", "values": [
      {"measurement": "MV MPR", "setting": "1 mpk IV, 15/65/20, pH 5", "value": 167},
      {"measurement": "MV ΔMV", "setting": "1 mpk IV, 15/65/20, pH 5", "value": 89},
      {"measurement": "MV MPR", "setting": "1 mpk IV, 20% HPβCD, pH 4", "value": 175},
      {"measurement": "MV ΔMV", "setting": "1 mpk IV, 20% HPβCD, pH 4", "value": 83}
    ]},
    {"smiles": "CC(C)CNc1nc(NCC(C)C)nc(N2C3CCC2CC(=O)C3)n1", "note": "[(1,5)-8-(4,6-bis(isobutylamino)-1,3,5-triazin-2-yl)-8-azabicyclo[3.2.1]octan-3-one]", "values": [
      {"measurement": "MV MPR", "setting": "1 mpk IV, 20% HPβCD, pH 5", "value": 237},
      {"measurement": "MV ΔMV", "setting": "1 mpk IV, 20% HPβCD, pH 5", "value": 137}
    ]},
    {"smiles": "CCCNc1nc(NCCC)nc(N2C3CCC2CC(=O)C3)n1", "note": "[(1,5)-8-(4,6-bis(n-propylamino)-1,3,5-triazin-2-yl)-8-azabicyclo[3.2.1]octan-3-one]", "values": [
      {"measurement": "MV MPR", "setting": "1 mpk IV, 20% HPβCD, pH 5", "value": 213},
      {"measurement": "MV ΔMV", "setting": "1 mpk IV, 20% HPβCD, pH 5", "value": 98}
    ]},
    {"smiles": "CCCNc1nc2c(c(N3CCC(O)CC3)n1)CCN2C", "note": "[CLII, 2-(n-Propyl)amino-4-(4-hydroxypiperidin-1-yl)-7-methyl-pyrrolidino[2,3-d]pyrimidine]", "values": [
      {"measurement": "MV MPR", "setting": "1 mpk IV, 20% HPβCD, pH 4", "value": 49},
      {"measurement": "MV ΔMV", "setting": "1 mpk IV, 20% HPβCD, pH 4", "value": 0.33}
    ]},
    {"smiles": "CCCNc1nc2c(c(N3C4CCC3CC(O)C4)n1)CCN2C", "note": "(stereo not shown) [CLV, 8-(7-methyl-2-(n-propylamino)-pyrrolidino[2,3-d]pyrimidin-4-yl)-8-azabicyclo[3.2.1]octan-3-ol]", "values": [
      {"measurement": "MV MPR", "setting": "1 mpk IV, 20% HPβCD, pH 4", "value": 170},
      {"measurement": "MV ΔMV", "setting": "1 mpk IV, 20% HPβCD, pH 4", "value": 57}
    ]},
    {"smiles": "C=CCNc1nc(NOC)c2ccn(C)c2n1", "note": "[CLX, N-(2-(Propen-2-yl)amino-7-methyl-pyrrolo[2,3d]pyrimidin-4-yl)-O-methyl-hydroxylamine]", "values": [
      {"measurement": "MV MPR", "setting": "1 mpk IV, 20% HPβCD, pH 5", "value": 182},
      {"measurement": "MV ΔMV", "setting": "1 mpk IV, 20% HPβCD, pH 5", "value": 103}
    ]},
    {"smiles": "COCCCNc1nc(NCCCOC)nc(N(C)OC)n1", "note": "[CXIII]", "values": [
      {"measurement": "MV DMV", "setting": "[1]", "value": 46},
      {"measurement": "MV MPR", "setting": "[1]", "value": 167.1}
    ]},
    {"smiles": "CCCNc1nc(N(C)OC)c2cc[nH]c2n1", "note": "[CXLI, N-(2-Propylamino-7H-pyrrolo[2,3d]pyrimidin-4-yl)-N,O-dimethyl-hydroxylamine]", "values": [
      {"measurement": "MV MPR", "setting": "1 mpk IV, 20% HPβCD, pH 4-6", "value": 264},
      {"measurement": "MV ΔMV", "setting": "1 mpk IV, 20% HPβCD, pH 4-6", "value": 163}
    ]},
    {"smiles": "CCCNc1nc(NCCC)c2c(n1)NCC2", "note": "[CXLIX, 2,4-Bis-(n-propyl)amino-7H-pyrrolidino[2,3-d]pyrimidine]", "values": [
      {"measurement": "MV MPR", "setting": "1 mpk IV, 20% HPβCD, pH 4", "value": 175},
      {"measurement": "MV ΔMV", "setting": "1 mpk IV, 20% HPβCD, pH 4", "value": 93},
      {"measurement": "MV MPR", "setting": "1 mpk IV, 20% HPβCD, pH 6", "value": 263},
      {"measurement": "MV ΔMV", "setting": "1 mpk IV, 20% HPβCD, pH 6", "value": 167},
      {"measurement": "MV DMV", "setting": "[1]", "value": 93},
      {"measurement": "MV MPR", "setting": "[1]", "value": 175},
      {"measurement": "MV DMV", "setting": "[2]", "value": 167},
      {"measurement": "MV MPR", "setting": "[2]", "value": 263}
    ]},
    {"smiles": "CON(C)c1nc2nc(n1)NCCOCCOCCOCCN2", "note": "[CXVII, N-(5,8,11-Trioxa-2,14,16,18,19-pentaazabicyclo[13.3.1]nonadeca-1(18),15 (19),16(17)-trien-17-yl)-N,O-dimethylhydroxylamine]", "values": [
      {"measurement": "MV DMV", "setting": "[3]", "value": 15},
      {"measurement": "MV MPR", "setting": "[3]", "value": 143.8}
    ]},
    {"smiles": "CON(C)c1nc(NCC2CCOCC2)nc(NCC2CCOCC2)n1", "note": "[CXV]", "values": [
      {"measurement": "MV DMV", "setting": "Table 8, 1 mpk, 15/65/20, pH 4", "value": 33.8},
      {"measurement": "MV MPR", "setting": "Table 8, 1 mpk, 15/65/20, pH 4", "value": 155.7}
    ]},
    {"smiles": "CCCNc1nc(NC(C)C)c2c(n1)N(C)CC2", "note": "[CXXVI]", "values": [
      {"measurement": "MV MPR", "setting": "1 mpk IV, 20% HPβCD, pH 5", "value": 327},
      {"measurement": "MV ΔMV", "setting": "1 mpk IV, 20% HPβCD, pH 5", "value": 224}
    ]},
    {"smiles": "CCCNc1nc(NC)c2c(n1)N(C)CC2", "note": "[CXXXI, 2-(n-Propyl)amino-4-methylamino-7-methyl-pyrrolidino[2,3-d]pyrimidine]", "values": [
      {"measurement": "MV MPR", "setting": "1 mpk IV, 20% HPβCD, pH 4", "value": 204},
      {"measurement": "MV ΔMV", "setting": "1 mpk IV, 20% HPβCD, pH 4", "value": 130}
    ]},
    {"smiles": "CCCNc1nc(NC(C)C)c2c(n1)N(C(C)C)CC2", "note": "[CXXXVI, 2-(n-Propyl)amino-4-(i-propyl)amino-7-i-propyl-pyrrolidino[2,3-d]pyrimidine]", "values": [
      {"measurement": "MV MPR", "setting": "1 mpk IV, 20% HPβCD, pH 4", "value": 238},
      {"measurement": "MV ΔMV", "setting": "1 mpk IV, 20% HPβCD, pH 4", "value": 143}
    ]},
    {"smiles": "CCCNc1cc(N(C)OC)nc(NCCC)n1", "note": "[CXX]", "values": [
      {"measurement": "MV MPR", "setting": "1 mpk IV, 20% HPβCD, pH 4-6", "value": 355},
      {"measurement": "MV ΔMV", "setting": "1 mpk IV, 20% HPβCD, pH 4-6", "value": 243},
      {"measurement": "MV DMV", "setting": "[3]", "value": 243},
      {"measurement": "MV MPR", "setting": "[3]", "value": 355}
    ]},
    {"smiles": "CCCNc1nc(NCCC)nc(N(C)OCc2ccccc2)n1", "note": "[LIII, O-Benzyl-N-(4,6-bis-n-propylamino-[1,3,5]triazin-2-yl)-N-methyl-hydroxylamine]", "values": [
      {"measurement": "MV MPR", "setting": "1 mpk IV, 20% HPβCD, pH 4-6", "value": 288},
      {"measurement": "MV ΔMV", "setting": "1 mpk IV, 20% HPβCD, pH 4-6", "value": 179}
    ]}
  ]
}
